The target in experiment [1] is T1, Transcription regulator protein BACH1 (Homo sapiens) (UniProt O14867).
T1 sequence (whole entry): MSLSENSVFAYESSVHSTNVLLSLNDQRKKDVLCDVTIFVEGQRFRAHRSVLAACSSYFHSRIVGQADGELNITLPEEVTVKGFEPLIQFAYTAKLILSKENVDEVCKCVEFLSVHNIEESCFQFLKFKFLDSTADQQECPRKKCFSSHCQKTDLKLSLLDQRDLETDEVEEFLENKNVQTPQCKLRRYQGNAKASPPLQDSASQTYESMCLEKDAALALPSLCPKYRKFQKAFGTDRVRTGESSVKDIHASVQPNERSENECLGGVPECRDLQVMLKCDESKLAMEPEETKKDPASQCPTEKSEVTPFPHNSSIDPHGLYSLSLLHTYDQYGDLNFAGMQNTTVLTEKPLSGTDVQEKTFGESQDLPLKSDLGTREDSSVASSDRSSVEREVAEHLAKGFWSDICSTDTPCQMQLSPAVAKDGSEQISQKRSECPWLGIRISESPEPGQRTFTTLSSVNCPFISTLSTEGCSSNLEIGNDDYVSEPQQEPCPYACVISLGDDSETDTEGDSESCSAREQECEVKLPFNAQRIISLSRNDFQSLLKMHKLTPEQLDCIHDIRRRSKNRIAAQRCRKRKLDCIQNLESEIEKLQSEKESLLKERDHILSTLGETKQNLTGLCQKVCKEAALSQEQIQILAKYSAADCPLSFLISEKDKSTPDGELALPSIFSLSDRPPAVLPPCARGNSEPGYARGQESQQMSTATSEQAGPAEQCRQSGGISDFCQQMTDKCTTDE
The experiment in a line: Inhibition of Bach1 in normal human lung fibroblasts assessed as induction of HMOX protein expression at 1.25 uM incubated for 16 to 18 hrs in presence of 0.312 uM Nrf2 activator Bardoxolone methyl by immunostaining relative to control.

For experiment [2], the target named is T1, Transcription regulator protein BACH1 (Homo sapiens). In words: Inhibition of Bach1 in normal human lung fibroblasts assessed as induction of HMOX protein expression at 0.039 uM incubated for 16 to 18 hrs in presence of 0.156 uM Nrf2 activator Bardoxolone methyl by immunostaining relative to control.
Experiment [3] shares this target. In words: Inhibition of Bach1 in normal human lung fibroblasts assessed as induction of HMOX protein expression at 0.019 uM incubated for 16 to 18 hrs in presence of 0.312 uM Nrf2 activator Bardoxolone methyl by immunostaining relative to control.
For experiment [4] the target is unchanged. The experiment in a line: Inhibition of Bach1 in normal human lung fibroblasts assessed as induction of HMOX protein expression at 0.312 uM incubated for 16 to 18 hrs in presence of 0.312 uM Nrf2 activator Bardoxolone methyl by immunostaining relative to control.
Experiment [5] shares this target. The experiment in a line: Inhibition of Bach1 in normal human lung fibroblasts assessed as induction of HMOX protein expression at 0.078 uM incubated for 16 to 18 hrs in presence of 0.0048 uM Nrf2 activator Bardoxolone methyl by immunostaining relative to control.
Experiment [6] shares this target. In words: Inhibition of Bach1 in normal human lung fibroblasts assessed as induction of HMOX protein expression at 0.625 uM incubated for 16 to 18 hrs in presence of 0.0097 uM Nrf2 activator Bardoxolone methyl by immunostaining relative to control.
For experiment [7] the target is unchanged. In words: Inhibition of Bach1 in normal human lung fibroblasts assessed as induction of HMOX protein expression at 0.039 uM incubated for 16 to 18 hrs in presence of 0.039 uM Nrf2 activator Bardoxolone methyl by immunostaining relative to control.
Experiment [8] shares this target. The experiment in a line: Inhibition of Bach1 in normal human lung fibroblasts assessed as induction of HMOX protein expression at 1.25 uM incubated for 16 to 18 hrs in presence of 0.019 uM Nrf2 activator Bardoxolone methyl by immunostaining relative to control.
Experiment [9] has the same target. The experiment in a line: Inhibition of Bach1 in normal human lung fibroblasts assessed as induction of HMOX protein expression at 0.019 uM incubated for 16 to 18 hrs in presence of 0.0024 uM Nrf2 activator Bardoxolone methyl by immunostaining relative to control.
Experiment [10] shares this target. In words: Inhibition of Bach1 in normal human lung fibroblasts assessed as induction of HMOX protein expression at 0.625 uM incubated for 16 to 18 hrs in presence of 0.156 uM Nrf2 activator Bardoxolone methyl by immunostaining relative to control.
Experiment [11] shares this target. In words: Inhibition of Bach1 in normal human lung fibroblasts assessed as induction of HMOX protein expression at 1.25 uM incubated for 16 to 18 hrs by immunostaining relative to control.
Experiment [12] shares this target. In words: Inhibition of Bach1 in normal human lung fibroblasts assessed as induction of HMOX protein expression at 0.039 uM incubated for 16 to 18 hrs in presence of 0.0097 uM Nrf2 activator Bardoxolone methyl by immunostaining relative to control.
Experiment [13] shares this target. The experiment in a line: Inhibition of Bach1 in normal human lung fibroblasts assessed as induction of HMOX protein expression at 0.312 uM incubated for 16 to 18 hrs in presence of 0.0024 uM Nrf2 activator Bardoxolone methyl by immunostaining relative to control.
For experiment [14] the target is unchanged. In words: Inhibition of Bach1 in normal human lung fibroblasts assessed as induction of HMOX protein expression at 0.039 uM incubated for 16 to 18 hrs in presence of 0.312 uM Nrf2 activator Bardoxolone methyl by immunostaining relative to control.
Experiment [15] has the same target. The experiment in a line: Inhibition of Bach1 in normal human lung fibroblasts assessed as induction of HMOX protein expression at 0.625 uM incubated for 16 to 18 hrs in presence of 0.039 uM Nrf2 activator Bardoxolone methyl by immunostaining relative to control.
The target is the same in experiment [16]. The experiment in a line: Inhibition of Bach1 in normal human lung fibroblasts assessed as induction of HMOX protein expression at 2.5 uM incubated for 16 to 18 hrs by immunostaining relative to control.
The target is the same in experiment [17]. The experiment in a line: Inhibition of Bach1 in normal human lung fibroblasts assessed as induction of HMOX protein expression at 1.25 uM incubated for 16 to 18 hrs in presence of 0.078 uM Nrf2 activator Bardoxolone methyl by immunostaining relative to control.
Experiment [18] has the same target. The experiment in a line: Inhibition of Bach1 in normal human lung fibroblasts assessed as induction of HMOX protein expression at 0.312 uM incubated for 16 to 18 hrs by immunostaining relative to control.
For experiment [19] the target is unchanged. The experiment in a line: Inhibition of Bach1 in normal human lung fibroblasts assessed as induction of HMOX protein expression at 0.625 uM incubated for 16 to 18 hrs in presence of 0.312 uM Nrf2 activator Bardoxolone methyl by immunostaining relative to control.
The target is the same in experiment [20]. The experiment in a line: Inhibition of Bach1 in normal human lung fibroblasts assessed as induction of HMOX protein expression at 0.625 uM incubated for 16 to 18 hrs in presence of 0.078 uM Nrf2 activator Bardoxolone methyl by immunostaining relative to control.
For experiment [21] the target is unchanged. The experiment in a line: Inhibition of Bach1 in normal human lung fibroblasts assessed as induction of HMOX protein expression at 2.5 uM incubated for 16 to 18 hrs in presence of 0.078 uM Nrf2 activator Bardoxolone methyl by immunostaining relative to control.

On to `CNC(=O)c1ccc2c(c1)nc(Nc1nc3ccc(OC(F)(F)F)cc3s1)n2C`, for which the fold change (FC) was found to be 10.5 in experiment [1]; 17.2 in experiment [2]; 17.2 in [3]; 17.4 in [4]; 4.72 in experiment [5]; 17.2 in experiment [6]. The fold change (FC) in [7] came to 14.7; in [8], 15.9; in experiment [9], 3.24; in [10] it was 18.7; in experiment [11] it was 16.2; in experiment [12], 5.31. Further, the fold change (FC) is 11.7 in [13]; 17.4 in experiment [14]; 17.2 in experiment [15]; 17.5 in experiment [16]; 15.2 in experiment [17]; 9.82 in experiment [18]. Also, the fold change (FC) in experiment [19] worked out at 12.7; in experiment [20], 18.6; in experiment [21], 14.3.

(Values after ChEMBL document CHEMBL4421728, “Bach1 Inhibitors in Combination with Nrf2 Activators and Pharmaceutical Compositions Thereof” (2017).)
